Results published in patent publication US20060241114A1, “Derivatives of azasugars as anticancer agents” (priority 2003, published 2006).

How the values were obtained:
[1] = test system: DU145 (prostate carcinoma); test: In vitro growth inhibition screen (sulphorhodamine B), DU145; assay type: cell-based, human; conditions: DU145 cells, incubated for 48 hours, sulphorhodamine B dye; read-out: GI50 (concentration which inhibits the cell growth by 50%), DU145 Prostate carcinoma
In short: (§1)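 SRB assay, 48 h treatment, RPMI 1640 + 10% FCS, 37° C, 5% CO2; dose range ≧100 μM–10 nM in ten-fold steps; OD 490 nm; GI50 derived.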

[2] = test system: HT29 (colorectal adenocarcinoma); test: In vitro growth inhibition screen (sulphorhodamine B), HT29; assay type: cell-based, human; conditions: HT29 cells, incubated for 48 hours, sulphorhodamine B dye; read-out: GI50 (concentration which inhibits the cell growth by 50%), HT29 Colorectal adenocarcinoma
In short: as §1

LOX (melanoma) = test: In vitro growth inhibition screen (sulphorhodamine B), LOX; assay type: cell-based, human; conditions: LOX cells, incubated for 48 hours, sulphorhodamine B dye; read-out: GI50 (concentration which inhibits the cell growth by 50%), LOX Melanoma
In short: as §1

[3] = test system: MCF7 (breast adenocarcinoma); test: In vitro growth inhibition screen (sulphorhodamine B), MCF7; assay type: cell-based, human; conditions: MCF7 cells, incubated for 48 hours, sulphorhodamine B dye; read-out: GI50 (concentration which inhibits the cell growth by 50%), MCF7 Breast adenocarcinoma
In short: as §1

[4] = test system: MCF7ADR (adriamycin resistant breast adenocarcinoma); test: In vitro growth inhibition screen (sulphorhodamine B), MCF7ADR; assay type: cell-based, human; conditions: MCF7ADR cells, incubated for 48 hours, sulphorhodamine B dye; read-out: GI50 (concentration which inhibits the cell growth by 50%), MCF7ADR Adriamycin Resistant Breast adenocarcinoma
In short: as §1

[5] = test system: U251 (human glioblastoma); test: In vitro growth inhibition screen (sulphorhodamine B), U251; assay type: cell-based; conditions: U251 cells, incubated for 48 hours, sulphorhodamine B dye; read-out: GI50 (concentration which inhibits the cell growth by 50%), U251 Human glioblastoma astrocytoma
In short: as §1

| Molecule | GI50 [1] [µM] | GI50 [2] [µM] | GI50 (LOX (melanoma)) [µM] | GI50 [3] [µM] | GI50 [4] [µM] | GI50 [5] [µM] |
| --- | --- | --- | --- | --- | --- | --- |
| C=CCN1C(=O)C(OCc2ccccc2)C(OCc2ccccc2)C(OCc2ccccc2)C1CN1C(=O)CCC1=O [Compound No. 84, N-Allyl-2,3,4-tri-O-benzyl-6-(2,5-diketopyrrolidino)-D-gluco-δ-lactam] | 18.3 | 18.7 | 5.9 | 5.3 | 6.4 | 9.3 |
| C=CCN1C[C@H](OCc2ccccc2)[C@@H](OCc2ccccc2)[C@H](OCc2ccccc2)[C@H]1CN1CCOCC1 [Compound No. 85, N-Allyl-2,3,4-tri-O-benzyl-1,5-dideoxy-1,5-imino-6-morpholino glucitol] | 43.5 | 11.3 | 27.3 | 7.2 | 40.3 | 25.9 |
| CCCN1C(=O)[C@H](O)[C@@H](O)[C@H](O)[C@H]1CN1C(=O)CCC1=O [Compound No. 86, 6-(2,5-Diketopyrrolidino)-N-propyl-D-gluco-δ-actam] | 38.5 | 44.4 | 37.5 | 36.2 | 52.2 | 34.4 |
| CCCN1C(=O)[C@H](O)[C@@H](O)[C@H](O)[C@H]1CN1C(=O)CCCC1=O [Compound No. 87, 6-(2,6-Diketopiperidino)-N-propyl-D-gluco-δ-lactam] | 131 | 108 | 244 | 74.2 | 96.9 | 101 |
| CCCN1C(=O)[C@H](OCc2ccccc2)[C@@H](OCc2ccccc2)[C@H](OCc2ccccc2)[C@H]1COc1nc(Cl)nc(Cl)n1 [Compound No. 90, 2,3,4-Tri-O-benzyl-6-O-(4,6-dichloro-1,3,5-triazin-1-yl)-N-propyl-D-gluco-δ-lactam] | 16.7 | 37.1 | 14.4 | 35.4 | 18.7 | 52.8 |
| N-Allyl-2,3,4-tri-O-benzyl-1,5-dideoxy-1,5-imino-D-glucitol [Compound No. 71] | 14.5 | 3.5 | 9.5 | 5.4 | 9.2 | 8.3 |
| N-Propyl-6-[4-chlorophenyl-3(2H,4H)-1,2,4-triazol-3-onyl]-D-gluco-δ-lactam [Compound No. 88] | 144 | 111 | 135 | 102 | 107 | 90.7 |
| N-{4-[Phenyl]piperazinyl carboxamido}-D-gluco-δ-lactam [Compound No. 80] | 90.7 | 100 | 75.9 | 69.4 | 60.1 | 59.9 |
